Ends that are not written are not given here.
Columns and labels:
[1] = system: TCC14; details: read-out: EC50 (antigen avidity); dose titration, BLS DR2b, proliferation after 72 h
[2] = system: TCC14; assay: Cytokine secretion of TCC14 on recognition of the RASGRP2 peptide; type: cell-based, human; details: data not shown
[3] = system: TCC21.1; assay: Intracellular cytokine staining of TCC21.1 after peptide stimulation; type: cell-based, human
Protocol: Next, the response of TCC21.1 to GDP-L-fucose synthase peptides presented by autologous irradiated PBMCs and BCL was characterized. GDP-L-fucose synthase peptides presented by the two types of APCs were able to induce proliferation. The functional phenotype of this response was also analyzed. […] Unexpectedly, when peptides were presented by autologous BCL, they induced higher levels of IFNγ. In addition, TCC21.1 also released GM-CSF and IL-3 in response to GDP-L-fucose synthase peptides. The release of these two cytokines seems to be a specific feature of this TCC compared with other Th1, Th1* or Th1/2 TLCs that were generated from patients with different conditions. Intracellular cytokine staining confirmed the Th2 functional phenotype of TCC21.1 in response to GDP-L-fucose synthase (96-105, SEQ ID NO: 16). More than 60% of TCC21.1 cells were IL-4+ after stimulation with GDP-L-fucose synthase (96-105, SEQ ID NO: 16), while only around 12% were IFNγ+. Around 60% of the cells were GM-CSF+ and 47.7% of these also IL-4+.
For intracellular cytokine staining, TCC21.1 was analyzed 48 h after stimulation. After 5 h in presence of GolgiStop protein transport inhibitor (BD Biosciences), T cells were labeled with Live/Dead® Aqua (Invitrogen). Following fixation and permeabilization with Cytofix/Cytoperm (BD Biosciences), cells were stained with antibodies against CD4 (APC-Cy7, Biolegend), IFN-γ (FITC, Biolegend), IL-4 (PE, BD Bioscience), GM-CSF (APC, Biolegend) and IL-3 (PE, Biolegend) in PBS containing saponin and BSA, and analyzed by flow cytometry.

[4] = system: TCC21.1; type: cell-based, human
Protocol: TCC21.1 was then tested with the complete decapeptide positional scanning library (200 mixtures; i.e. mixtures representing the 10 positions of a 10-mer and in each of the fixed positions one of the 20 L-amino acids), presented by BCL expressing DRB1*15:01 class II molecules. A similar response pattern was obtained with IL-10 release. Next, a biometrical analysis scoring matrix was generated by assigning numerical values to the stimulatory potential of each of the 20 defined AAs in each of the ten positions of the decapeptide library as previously described (Zhao et al., 2001). Here, the values were calculated as the log base 10 of the median GM-CSF (pg/ml) secretion of three independent experiments in the presence of mixtures, minus the secretion in the absence of mixtures (FIG. 3B). Based on a model of independent contribution of individual AAs to peptide antigen recognition, the predicted stimulatory score of a given peptide is the sum of the matrix values of each AA contained in the peptide at each position (Zhao et al., 2001). […] Using the new “harmonic boost” frame 1 and frame 2 matrices, all natural overlapping 10-mers peptides derived from the UniProt human protein database were scored and ranked as schematically shown in FIG. 2. […]

[5] = system: TCC21.1; assay: Proliferation of TCC21.1 in response to GDP-L-fucose synthase peptides presented by autologous APCs; type: cell-based, human; details: 15-mer peptides overlapping by 10 AAs, presented by autologous PBMCs

For LVRYWISAFP [SEQ ID NO: 33, LVRYWISAFP], the EC50 [1] was 12 nM and the “cytokine secretion by TCC14” value [2] was “secretion of Th2 cytokines and also of IFN-γ”.
NVLHSAFEVG [SEQ ID NO: 16, NVLHSAFEVG] was tested, and the “GM-CSF+ TCC21.1 cells also IL-4+” value [3] was 47.7%, the “TCC21.1 cells GM-CSF+” value [3] was “Around 60%” and the “TCC21.1 cells IFNγ+” value [3] was “around 12%”. The “TCC21.1 cells IL-4+” value [3] was “More than 60%” and the EC50 [4] was 0.2 µg/mL.
For “NVLHSAFEVGARKVV (listed as Homo sapiens) [SEQ ID NO: 17]”, the “recognition by TCC21.1 (proliferation)” value [5] was “recognized”.
For “VHMNDNVLHSAFEVG (listed as Homo sapiens) [SEQ ID NO: 14]”, the “recognition by TCC21.1 (proliferation)” value [5] was “recognized”.
“VLHSAFEVGA (listed as Homo sapiens) [SEQ ID NO: 18]” was tested, and the “GM-CSF release by TCC21.1 (stimulatory capacity)” value ([4]; individual decapeptides at 5 pg/ml, presented by BLS cells expressing DRB1*15:01) was “induced GM-CSF release”.

From patent US12527846B2, “Immunodominant proteins and fragments in multiple sclerosis” (UNIVERSITÄT ZÜRICH, priority 2018, dated 2026)
